Test results taken from ChEMBL document CHEMBL3861944 (Medchemcomm, 2016).

Assay: Antioxidant activity assessed as DPPH free radical scavenging activity incubated for 30 mins in dark
Type: functional

IC50: 79.3 µM
Compound: O=C1O[C@H]([C@@H](O)CO)C(O)=C1O [ASCORBIC ACID]
